Counter-ions that a name gives are not always drawn.
What was measured:
human Tie2 = biological target: T1, human Tie2 (Homo sapiens, UniProt Q02763); test: test of phosphorylation of PLC with Tie2 (GST-Tie2); type: biochemical; details: Table 1; unit inferred; read-out: Tie2 (concentration that inhibits 50% of the kinase activity)
T1 construct: amino acids of the intracellular domain 776-1124; made in house; host or cells: baculovirus expression (pFastBacGT)
Procedure: The coding sequence of human Tie2 corresponding to the amino acids of the intracellular domain 776-1124 was generated by PCR using the cDNA isolated from a human placenta as a model. This sequence was introduced into a pFastBacGT baculovirus expression vector in the form of a GST fusion protein.
The inhibitory effect of the molecules is determined in a test of phosphorylation of PLC with Tie2 in the presence of GST-Tie2 purified to about 80% homogeneity. The substrate is composed of the SH2-SH3 fragments of PLC expressed in the form of a GST fusion protein.
The kinase activity of Tie2 is measured in a MOPS 20 mM pH 7.2 buffer, containing 10 mM MgCl2, 10 mM MnCl2, 1 mM DTT, 10 mM of glycerophosphate. In a 96-well FlashPlate plate maintained on ice, a reaction mixture is deposited, composed of 70 μL of kinase buffer containing 100 ng of enzyme GST-Tie2 per well. Next, 10 μL of the test molecule diluted in DMSO to a maximum concentration of 10% are added. For a given concentration, each measurement is performed four times. The reaction is initiated by adding 20 μl of solution containing 2 μg of GST-PLC, 2 μm of cold ATP and 1 μCi of δ^33P[ATP]. After incubation for one hour at 37° C., the reaction is stopped by adding 1 volume (100 μl) of 200 mM EDTA. After removal of the incubation buffer, the wells are washed three times with 300 μL of PBS. The radioactivity is measured on a MicroBeta 1450 Wallac.
The inhibition of the Tie2 activity is calculated and expressed as a percentage of inhibition relative to the control activity determined in the absence of compound.

human KDR enzyme = biological target: T2, human KDR enzyme (Homo sapiens, UniProt P35968); test: in vitro test of phosphorylation of substrate with the enzyme KDR (scintillation technique); type: biochemical; details: Table 1; unit inferred; read-out: KDR (concentration that inhibits 50% of the kinase activity)
T2 construct: The cytoplasmic domain of the human KDR enzyme was cloned in the form of a GST fusion; GST; made in house; host or cells: SF21 insect cells (baculovirus, pFastBac)
T2 sequence (P35968 786-1356 limits assumed): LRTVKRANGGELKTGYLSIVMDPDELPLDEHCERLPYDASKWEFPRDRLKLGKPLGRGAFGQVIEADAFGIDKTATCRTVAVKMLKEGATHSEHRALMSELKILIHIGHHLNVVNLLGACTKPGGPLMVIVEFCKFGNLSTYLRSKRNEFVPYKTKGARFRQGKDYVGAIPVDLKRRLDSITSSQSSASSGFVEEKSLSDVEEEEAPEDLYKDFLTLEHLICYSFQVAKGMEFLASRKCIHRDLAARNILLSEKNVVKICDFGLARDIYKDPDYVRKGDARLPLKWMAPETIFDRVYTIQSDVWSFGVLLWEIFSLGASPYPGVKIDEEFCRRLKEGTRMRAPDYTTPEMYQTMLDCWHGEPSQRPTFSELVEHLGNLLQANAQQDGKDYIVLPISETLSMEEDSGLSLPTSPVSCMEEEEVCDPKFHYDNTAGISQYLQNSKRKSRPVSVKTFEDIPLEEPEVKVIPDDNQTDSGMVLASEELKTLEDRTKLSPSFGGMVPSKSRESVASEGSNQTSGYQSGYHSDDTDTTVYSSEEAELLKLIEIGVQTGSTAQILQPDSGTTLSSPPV
Procedure: Determination of the Activity of the Compounds—Experimental Protocols 1. KDR
The inhibitory effect of the compounds is determined in an in vitro test of phosphorylation of substrate with the enzyme KDR via a scintillation technique (96-well plate, NEN).
The cytoplasmic domain of the human KDR enzyme was cloned in the form of a GST fusion in the pFastBac baculovirus expression vector. The protein was expressed in the SF21 cells and purified to about 60% homogeneity.
The KDR kinase activity is measured in 20 mM MOPS, 10 mM MgCl2, 10 mM MnCl2, 1 mM DTT, 2.5 mM EGTA, 10 mM b-glycerophosphate, pH=7.2, in the presence of 10 mM MgCl2, 100 μm Na3VO4, 1 mM NaF. 10 μl of the compound are added to 70 μl of kinase buffer containing 100 ng of KDR enzyme at 4° C. The reaction is initiated by adding 20 μl of solution containing 2 μg of substrate (SH2-SH3 fragment of PLCγ expressed in the form of a GST fusion protein), 2 μCi of γ^33P[ATP] and 2 μm of cold ATP. After incubation for 1 hour at 37° C., the reaction is stopped by adding 1 volume (100 μl) of 200 mM EDTA. The incubation buffer is removed, and the wells are washed three times with 300 μl of PBS. The radioactivity in each well is measured using a Top Count NXT radioactivity counter (Packard).
The background noise is determined by measuring the radioactivity in four different wells containing radioactive ATP and the substrate alone.
A total activity control is measured in four different wells containing all the reagents (γ^33P—[ATP], KDR and substrate PLCγ), but in the absence of compound.
The inhibition of the KDR activity with the compound of the invention is expressed as a percentage of inhibition of the control activity determined in the absence of compound.
Compound SU5614 (Calbiochem) (1 μM) is included in each plate as an inhibition control.

T1 sequence (Q02763 776-1124): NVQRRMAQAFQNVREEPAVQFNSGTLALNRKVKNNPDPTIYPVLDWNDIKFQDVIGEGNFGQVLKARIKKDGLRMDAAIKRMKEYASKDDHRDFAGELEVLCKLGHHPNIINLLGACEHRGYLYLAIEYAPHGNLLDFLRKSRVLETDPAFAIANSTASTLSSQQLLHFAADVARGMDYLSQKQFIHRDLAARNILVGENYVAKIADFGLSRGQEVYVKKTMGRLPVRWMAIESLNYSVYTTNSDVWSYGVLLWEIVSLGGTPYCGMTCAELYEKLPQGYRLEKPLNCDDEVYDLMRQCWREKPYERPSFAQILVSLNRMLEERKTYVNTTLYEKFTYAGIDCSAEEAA

SMILES | IC50 (human Tie2) [nM] | IC50 (human KDR enzyme) [nM]
NC(=O)c1n[nH]cc1NCc1cccc(NC(=O)Nc2cc(C(F)(F)F)ccc2F)c1 [Example 2a, 4-{[3-({[2-fluoro-5-(trifluoromethyl)phenyl]carbamoyl}amino)benzyl]-amino}-1H-pyrazole-3-carboxamide trifluoroacetate] | 20 | 8
NC(=O)c1n[nH]cc1NCc1cccc(NC(=O)Nc2cc(F)cc(C(F)(F)F)c2)c1 [Example 7, 4-{[3-({[3-fluoro-5-(trifluoromethyl)phenyl]carbamoyl}amino)benzyl]-amino}-1H-pyrazole-3-carboxamide trifluoroacetate] | 72.7 | 4.5
COc1cc(NC(=O)Nc2cccc(CNc3c[nH]nc3C(N)=O)c2)cc(OC)c1 [Example 13, 4-[(3-{[(3,5-dimethoxyphenyl)carbamoyl]amino}benzyl)amino]-1H-pyrazole-3-carboxamide trifluoroacetate] | 1460 | 11.8
COC(=O)c1n[nH]cc1NCc1cccc(NC(=O)Nc2cc(C(F)(F)F)ccc2F)c1 [Example 32, Methyl 4-{[3-({[2-fluoro-5-(trifluoromethyl)phenyl]carbamoyl}amino)-benzyl]amino}-1H-pyrazole-3-carboxylate trifluoroacetate] | 1000 | 64.1
COC(=O)c1cccc(NC(=O)Nc2cccc(CNc3c[nH]nc3C(N)=O)c2)c1 [Example 9, Methyl 3-{[(3-{[(3-carbamoyl-1H-pyrazol-4-yl)-amino]methyl}phenyl)-carbamoyl]amino}benzoate trifluoroacetate] | 4510 | 21.8
